According to patent US20260055066A1, “CRYSTALLINE FORM OF PYRIMIDINE-4-CARBOXAMIDE COMPOUND AND ORAL PHARMACEUTICAL FORMULATION CONTAINING SAME” (J2H BIOTECH INC., priority 2022, published 2026):
Read-outs that look alike come from different tables or passages of the source.

What was measured:
[1] = Water solubility / BCS classification of the compound of chemical formula 1; type: physicochemical
[2] = Stability evaluation of the crystalline form of Example 1 (ICH long-term and accelerated storage, HPLC; PXRD); type: physicochemical; conditions: for Content / Total impurities: HPLC
Method: The stability of the crystalline solid of the compound of chemical formula 1 prepared by Example 1 was evaluated. According to the ICH guideline, the stability test was conducted under long-term storage (25±2° C., 60±5% RH) and accelerated (40±2° C., 75±5% RH) conditions. The analysis was performed using HPLC to evaluate the change in content and the occurrence of impurities, and the results are shown in Table 1 below.
For a BCS Class 2 substance such as the compound of chemical formula 1, it is very important that the crystalline form remains stable under storage conditions. The more insoluble a substance is, the greater the impact of changes in crystallinity on the quality of the final product is. The change in the crystalline form causes changes in hygroscopicity, stability, dissolution, etc.

[3] = Comparative pharmacokinetic test of the formulation in beagle dog, Experimental Example 8; type: in vivo; conditions: for AUC(0-t) / Cmax / Tmax / half-life / Vd/F / CL/F: beagle, dog, plasma; for Vd/F: read-out: Vz(terminal)/F; for CL/F: CL(inf)/F
Method: By applying the conditions of Preparation Example 10, tablets containing 25, 50, and 100 mg of the crystalline solid of chemical formula 1 as a pharmaceutical raw material were manufactured. An experiment was conducted to analyze the pharmacokinetic characteristics of the manufactured tablets after oral administration to a beagle dog.
The compound of chemical formula 1 was administered orally to a beagle dog as a single dose of 25, 50, and 100 mg tablets/head, orally as a single dose of 25 mg liquid/head, and intravenously as a single dose of 2 mg/kg. Blood samples were collected before (0) and 15, 30 min, 1, 1.5, 2, 4, 6, 8, 10, 16, and 24 hr after administration of the test substance to measure the blood concentration of the compound of chemical formula 1.
The preparation for single oral administration in liquid/head was prepared by homogeneously suspending 275 mg of the compound of chemical formula 1 in 220 ml of pre-prepared 2.5% HP-PCD (sterile water solution) to obtain 1.25 mg/ml. In addition, the preparation for single intravenous administration was prepared by dissolving 300 mg of the compound of chemical formula 1 in 150 ml of pre-prepared 10% HP-PCD (sterile water solution) to obtain 2 mg/ml.

[4] = accelerated 40±2°C, 75±5% RH, 1 months
[5] = accelerated 40±2°C, 75±5% RH, 3 months
[6] = accelerated 40±2°C, 75±5% RH, 6 months
[7] = accelerated 40±2°C, 75±5% RH, Initial
[8] = long-term storage 25±2°C, 60±5% RH, 1 months
[9] = long-term storage 25±2°C, 60±5% RH, 3 months
[10] = long-term storage 25±2°C, 60±5% RH, 6 months
[11] = long-term storage 25±2°C, 60±5% RH, 12 months
[12] = long-term storage 25±2°C, 60±5% RH, Initial
[13] = iv, 2 mg/kg, 2 mg/kg solution (iv), 10% HP-PCD, single dose, beagle dog plasma
[14] = po, 25 mg, 25 mg solution (po), per head, suspended in 2.5% HP-PCD, single dose, beagle dog plasma
[15] = po, 25 mg, 25 mg tablet (po), per head, single dose, beagle dog plasma
[16] = po, 50 mg, 50 mg tablet (po), per head, single dose, beagle dog plasma
[17] = po, 100 mg, 100 mg tablet (po), per head, single dose, beagle dog plasma

## C[C@@H]1CN(c2ccc(S(C)(=O)=O)cc2F)CCN1c1nccc(C(=O)NC2C3CC4CC2CC(O)(C4)C3)n1 (stereo partly drawn) [chemical formula 1, 2-((R)-4-(2-fluoro-4-(methylsulfonyl)phenyl)-2-methylpiperazin-1-yl)-N-((1R,2s,3S,5S,7S)-5-hydroxyadamantan-2-yl)pyrimidine-4-carboxamide]
[1]
  Biopharmaceutics classification system (BCS) class: Class 2 (high permeability, low solubility)
  solubility according to pH: does not have the characteristic of improving solubility according to pH
[1]; water
  solubility: ≤ 1 µg/mL
[2]; [4]
  Content: 99.6%
  Total impurities: 0.43%
[2]; [5]
  Content: 100.8%
  Total impurities: 0.44%
[2]; [6]
  Content: 100.0%
  Total impurities: 0.42%
[2]; [7]
  Content: 99.9%
  Total impurities: 0.34%
[2]; [8]
  Content: 99.5%
  Total impurities: 0.43%
[2]; [9]
  Content: 99.3%
  Total impurities: 0.41%
[2]; [10]
  Content: 100.5%
  Total impurities: 0.43%
[2]; [11]
  Content: 99.7%
  Total impurities: 0.45%
[2]; [12]
  Content: 99.9%
  Total impurities: 0.34%
[2]; stored 3, 6 and 12 months (12 months long-term only)
  crystalline form (PXRD) of stored stability samples: the crystalline form did not change
[3]; 2 mg/kg solution (iv), 10% HP-PCD, single dose, beagle dog plasma
  CL(inf)/F: 5.5 mL/min/kg
[3]; 25 mg solution (po), per head, single dose, beagle dog
  BA: 45.82 % F
[3]; 25 mg tablet (po), per head, single dose, beagle dog
  BA: 44.31 % F
[3]; 25 mg/head po, beagle dog
  average absorption (AUClast) of the tablet administration group relative to the liquid administration group: 96.7%
[3]; 50 mg tablet (po), per head, single dose, beagle dog
  BA: 35.37 % F
[3]; 100 mg tablet (po), per head, single dose, beagle dog
  BA: 25.40 % F
[3]; [13]
  AUC(0-t): 6180 ng·h/mL
  Cmax: 1160 ng/mL
  Tmax: 0.25 h
  half-life: 4.07 h
[3]; [14]
  AUC(0-t): 3370 ng·h/mL
  Cmax: 393 ng/mL
  Tmax: 1.5 h
  half-life: 6.32 h
  Vd/F: 58.5 L
  CL/F: 6.9 L/h
[3]; [15]
  AUC(0-t): 3260 ng·h/mL
  Cmax: 420 ng/mL
  Tmax: 2 h
  half-life: 4.42 h
  Vd/F: 49.4 L
  CL/F: 8.04 L/h
[3]; [16]
  AUC(0-t): 5210 ng·h/mL
  Cmax: 666 ng/mL
  Tmax: 2 h
  half-life: 5.29 h
  Vd/F: 79.3 L
  CL/F: 10.2 L/h
[3]; [17]
  AUC(0-t): 7480 ng·h/mL
  Cmax: 899 ng/mL
  Tmax: 1.75 h
  half-life: 6.89 h
  Vd/F: 119 L
  CL/F: 12.8 L/h
